Reference: ChEMBL document CHEMBL1157031, “A novel copper complex of salicylaldehyde pyrazole hydrazone induces apoptosis through up-regulating integrin beta4 in H322 lung carcinoma cells” (Eur J Med Chem, 2010)
Activity calls are given as the source filed them. The calls are words filed in the database; no cut-off is given here.

Key:
[1] = tested on: NCI-H322; test: Induction of apoptosis in human NCI-H322 cells at 10 uM by Hoechst 33258 staining in presence of CuCl2; type: functional, cell-based
[2] = tested on: NCI-H1299; test: Cytotoxicity against human NCI-H1299 cells after 48 hrs by MTT assay; type: functional, cell-based; conditions: NCI-H1299, 48 h
[3] = tested on: HUVEC; test: Cytotoxicity against HUVEC cells after 48 hrs by MTT assay; type: cell-based; conditions: Homo sapiens
[4] = Cytotoxicity against human NCI-H322 cells after 48 hrs by MTT assay; type: functional, cell-based; conditions: NCI-H322, 48 h

CC(C)(C)c1ccc(Cn2nc(-c3ccccc3)cc2C(=O)N/N=C/c2ccccc2O)cc1
Activity [1]: Active | IC50 [2]: 5.78 µM | IC50 [3]: 2.23 µM | IC50 [4]: 4.75 µM
